The values that follow are results of earlier work, collected in patent US9987253B2, “Cannabinoid receptor antagonists/inverse agonists useful for treating metabolic disorders, including obesity and diabetes” (Jenrin Discovery, priority 2012, dated 2018).

The conditions of the data set: type 2 diabetes patients not treated with other anti-diabetic medications, six months, baseline 7.9.

For `Cc1c(C(=O)NN2CCCCC2)nn(-c2ccc(Cl)cc2Cl)c1-c1ccc(Cl)cc1` [rimonabant], the HbA1c levels lowered is recorded as 0.8%.
